Several values for one entry are separate records, joined by “and”; a condition that tells them apart may be missing. Identical values can stand only once.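 Dose response: 5 concentrations. Exposure: 48 h. Format: 96-well plates. Endpoint: linear interpolation; highest concentration if not reached. Abbreviation: GI50, concentration required for 50% inhibition of growth. TGI denotes the concentration required for complete inhibition of growth.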
Assays:
Assay in all cases: NCI anticancer screen, dose series, 48 h
HCT-116 colon = system: HCT-116 colon
EKVX NSCLC = system: EKVX NSCLC
SF-295 CNS = system: SF-295 CNS
SK-MEL-28 melanoma = system: SK-MEL-28 melanoma
SF-539 CNS = system: SF-539 CNS
UACC-62 melanoma = system: UACC-62 melanoma
SK-OV-3 ovarian = system: SK-OV-3 ovarian
TK-10 renal = system: TK-10 renal
RPMI-8226 leukemia = system: RPMI-8226 leukemia
SR leukemia = system: SR leukemia

Structure (SMILES)	TGI (HCT-116 colon)	TGI (EKVX NSCLC)	TGI (SF-295 CNS) [µM]	TGI (SK-MEL-28 melanoma)	TGI (SF-539 CNS)	TGI (UACC-62 melanoma)	TGI (SK-OV-3 ovarian)	TGI (TK-10 renal)	TGI (RPMI-8226 leukemia)	GI50 (HCT-116 colon) [µM]	GI50 (SR leukemia) [µM]	TGI (SR leukemia) [µM]	GI50 (EKVX NSCLC) [µM]	GI50 (UACC-62 melanoma) [µM]	GI50 (SK-OV-3 ovarian)	GI50 (TK-10 renal)	GI50 (RPMI-8226 leukemia) [µM]	GI50 (SF-295 CNS) [µM]	GI50 (SK-MEL-28 melanoma) [µM]	GI50 (SF-539 CNS) [µM]
Fc1nc(Sc2ncnc3nc[nH]c23)nc(-c2c3ccccc3c3sc4ccccc4n23)n1	> 100 µM	> 100 µM	> 100	> 100 µM	> 100 µM	> 100 µM	> 100 µM	> 100 µM	> 100 µM	–	–	–	–	–	–	–	–	–	–	–
CC[C@]1(O)C[C@@H]2CN(CCc3c([nH]c4ccccc34)[C@@](C(=O)OC)(c3cc4c(cc3OC)N(C)[C@H]3[C@@](O)(C(=O)OC)[C@H](OC(=O)CCCBr)[C@]5(CC)C=CCN6CC[C@]43[C@@H]65)C2)C1	> 32.4 µM	> 100 µM	–	–	–	> 100 µM	> 22.2 µM	> 100 µM	0.492 µM	< 0.01	< 0.01	> 100	0.336	< 0.01	0.306 µM	2 µM	< 0.01	–	–	–
Cc1ccc(/C=C2\CCCC(C(NO)c3ccc(C)cc3)C2=NO)cc1 (stereo unspecified)	> 100 µM	> 100 µM	–	67.7 µM	> 100 µM	> 100 µM	> 100 µM	> 100 µM	48.8 µM	–	–	–	–	–	–	–	–	–	–	–
COc1cc2ccc(CC(=O)O)cc2cc1OC	> 100 µM	> 100 µM	–	> 100 µM	–	> 100 µM	> 100 µM	> 100 µM	> 100 µM	–	–	> 100	–	–	–	–	–	–	–	–
CCOc1ccccc1NC(=O)C1=C(C)NC(C)=C(C(=O)Nc2ccccc2OCC)C1c1ccc2c(c1)OCO2	–	> 100 µM	74.6	> 100 µM	84.7 µM	–	> 100 µM	> 100 µM	> 100 µM	–	–	–	–	–	–	–	–	–	–	–
Clc1ccc(/C=C/c2csnn2)cc1	> 100 µM	> 100 µM	> 100	> 100 µM	> 100 µM	> 100 µM	> 100 µM	> 100 µM	–	–	–	–	–	–	–	–	–	–	–	–
Clc1cc(Cl)cc(Nc2ccc3c(OCCCN4CCOCC4)cccc3n2)c1	3.56 µM	9.15 µM	4.06	3.3 µM	3.84 µM	4.57 µM	8.55 µM	5 µM	8.33 µM	1.82	–	–	2.95	2.01	2.78 µM	2.38 µM	2.8	1.92	1.65	1.94
CC1(C)N=C(N)N=C(N)N1c1ccc(CCCCCCc2ccc(S(=O)(=O)F)cc2)cc1	15.3 µM	21.3 µM	22	37.7 µM	–	0.604 µM	23.3 µM	15.9 µM	–	–	–	–	–	–	–	–	–	–	–	–
COc1cc(COC(=O)N(C)[C@@H](Cc2ccccc2)C(=O)O)c([N+](=O)[O-])cc1OC	> 100 µM	> 100 µM	> 100	–	> 100 µM	> 100 µM	> 100 µM	–	> 100 µM	–	–	–	–	–	–	–	–	–	–	–
COc1ccc(C2NC(c3ccc(OC)cc3)C(C)C(=O)C2C)cc1 (stereo unspecified)	> 100 µM	> 100 µM	> 100	> 100 µM	> 100 µM	> 100 µM	> 100 µM	> 100 µM	> 100 µM	–	–	–	–	–	–	–	–	–	–	–
CC1(O)CC2C(CC1SCc1ccccc1)C2(C)C (stereo unspecified)	47.9 µM and 30.2 µM	77.3 µM and 31.7 µM	43.4	> 100 µM and 35.4 µM	60.2 µM and 33.4 µM	92.3 µM and 33.4 µM	> 100 µM and 29.2 µM	> 100 µM and 34.1 µM	44.9 µM and 51.1 µM	–	–	–	–	–	37.5 µM and 15.7 µM	57.1 µM and 19.9 µM	–	–	–	–

Reference: PubChem BioAssay (NCI)
